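Dose response: 5 concentrations. Exposure: 48 h. Format: 96-well plates. Endpoint: linear interpolation; highest concentration if not reached. GI50 = concentration required for 50% inhibition of growth.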 Activity calls are given as the source filed them. Rule as the data show it: active = GI50 up to about 1.1 µM and inactive = higher.
Tests used:
Experiment in all cases: NCI anticancer screen, dose series, 48 h
HL-60 = test system: HL-60
OVCAR-3 = test system: OVCAR-3
NCI-H522 = test system: NCI-H522
KM12 = test system: KM12
HCT-15 = test system: HCT-15
SN12C = test system: SN12C
DU-145 = test system: DU-145
SK-MEL-2 = test system: SK-MEL-2
M14 = test system: M14
ACHN = test system: ACHN
U-251 = test system: U-251
CAKI-1 = test system: CAKI-1
T47D = test system: T47D
SR = test system: SR
HT-29 = test system: HT-29
BT-549 = test system: BT-549
A549 = test system: A549
SK-MEL-28 = test system: SK-MEL-28
UACC-257 = test system: UACC-257
MCF7 = test system: MCF7
Hs-578T = test system: Hs-578T
PC-3 = test system: PC-3
786-0 = test system: 786-0
HCT-116 = test system: HCT-116
NCI-H226 = test system: NCI-H226
SNB-75 = test system: SNB-75
OVCAR-8 = test system: OVCAR-8
EKVX = test system: EKVX
SF-268 = test system: SF-268
NCI-H460 = test system: NCI-H460
UACC-62 = test system: UACC-62
OVCAR-5 = test system: OVCAR-5
LOX IMVI = test system: LOX IMVI
SF-295 = test system: SF-295
SNB-19 = test system: SNB-19
MDA-N = test system: MDA-N
IGROV-1 = test system: IGROV-1
OVCAR-4 = test system: OVCAR-4
HOP-62 = test system: HOP-62
SF-539 = test system: SF-539
NCI-H23 = test system: NCI-H23
K562 = test system: K562
UO-31 = test system: UO-31
SK-MEL-5 = test system: SK-MEL-5
HOP-92 = test system: HOP-92
CCRF-CEM = test system: CCRF-CEM
SW-620 = test system: SW-620
MDA-MB-231 = test system: MDA-MB-231
SK-OV-3 = test system: SK-OV-3
A498 = test system: A498
MDA-MB-435 = test system: MDA-MB-435
HCC 2998 = test system: HCC 2998
RXF 393 = test system: RXF 393
MOLT-4 = test system: MOLT-4
TK-10 = test system: TK-10
NCI/ADR-RES = test system: NCI/ADR-RES
RPMI-8226 = test system: RPMI-8226
Malme-3M = test system: Malme-3M
COLO 205 = test system: COLO 205

Measured: GI50

O=C1C([P+](c2ccccc2)(c2ccccc2)c2ccccc2)=C([O-])C(=Cc2ccc(Cl)c(Cl)c2)C([O-])=C1[P+](c1ccccc1)(c1ccccc1)c1ccccc1
inactive: OVCAR-3 1990 nM | NCI-H522 1800 nM | KM12 2010 nM | SN12C 2430 nM | DU-145 7670 nM | SK-MEL-2 2440 nM | M14 2380 nM | ACHN 2800 nM | U-251 2470 nM | CAKI-1 2180 nM | T47D 3370 nM | HT-29 1910 nM | BT-549 2270 nM | A549 2620 nM | SK-MEL-28 2490 nM | UACC-257 2430 nM | MCF7 1460 nM | Hs-578T 4020 nM | PC-3 1710 nM | 786-0 2140 nM | HCT-116 1680 nM | NCI-H226 3440 nM | SNB-75 4020 nM | OVCAR-8 2230 nM | EKVX 2470 nM | SF-268 1720 nM | NCI-H460 2890 nM | UACC-62 2230 nM | OVCAR-5 3560 nM | SF-295 2650 nM | SNB-19 3160 nM | MDA-N 1900 nM | IGROV-1 2620 nM | OVCAR-4 2970 nM | HOP-62 3540 nM | SF-539 2550 nM | NCI-H23 3510 nM | K562 1600 nM | UO-31 3750 nM | SK-MEL-5 2340 nM | HOP-92 2340 nM | SW-620 2170 nM | MDA-MB-231 2960 nM | SK-OV-3 1930 nM | A498 15100 nM | MDA-MB-435 2300 nM | HCC 2998 2930 nM | RXF 393 1710 nM | TK-10 2710 nM | NCI/ADR-RES 8710 nM | RPMI-8226 1220 nM | Malme-3M 2340 nM | COLO 205 1730 nM
4790 nM: HCT-15
active: HL-60 735 nM | SR 925 nM | LOX IMVI 1060 nM | CCRF-CEM 465 nM | MOLT-4 421 nM

CC[C@@]1(O)C(=O)OCc2c1cc1n(c2=O)Cc2c-1nc1ccccc1c2CC[Si](C)(C)C [COSITECAN]
active: HL-60 < 10 nM | OVCAR-3 60.4 nM | NCI-H522 < 10 nM | KM12 36.7 nM | SN12C < 10 nM | DU-145 < 10 nM | SK-MEL-2 53 nM | M14 < 10 nM | ACHN < 10 nM | U-251 < 10 nM | CAKI-1 < 10 nM | T47D < 10 nM | SR < 10 nM | HT-29 < 10 nM | BT-549 23 nM | A549 < 10 nM | UACC-257 < 39.1 nM | MCF7 < 10 nM | PC-3 < 38.9 nM | 786-0 < 10 nM | HCT-116 < 10 nM | NCI-H226 < 10 nM | SNB-75 < 10 nM | OVCAR-8 < 10 nM | EKVX 67.1 nM | SF-268 < 10 nM | NCI-H460 < 10 nM | UACC-62 < 10 nM | OVCAR-5 60.1 nM | LOX IMVI < 10 nM | SF-295 < 10 nM | SNB-19 < 10 nM | MDA-N < 10 nM | IGROV-1 14.9 nM | OVCAR-4 99.8 nM | HOP-62 < 10 nM | SF-539 < 10 nM | NCI-H23 < 10 nM | K562 10.1 nM | UO-31 < 10 nM | SK-MEL-5 < 10 nM | HOP-92 115 nM | SW-620 10.1 nM | MDA-MB-231 417 nM | SK-OV-3 < 10 nM | A498 < 10 nM | MDA-MB-435 < 10 nM | HCC 2998 < 10 nM | RXF 393 < 10 nM | MOLT-4 < 10 nM | TK-10 131 nM | NCI/ADR-RES < 10 nM | RPMI-8226 < 10 nM | Malme-3M < 10 nM | COLO 205 < 38.3 nM
inactive: Hs-578T 7730 nM
78.9 nM: HCT-15
